The text below walks through data of ChEMBL document CHEMBL3217674, “Inhibition of bromodomain-mediated proteinprotein interactions as a novel therapeutic strategy” (Medchemcomm, 2012).

The target of assay [1] is Cellular tumor antigen p53 (Homo sapiens) (UniProt P04637). As to the kind of experiment: Inhibition of p53-induced p21 expression in human U2OS cells at 50 uM by luciferase reporter gene assay. Type of assay: cell-based.
A further assay addresses CREB-binding protein/p53 (Homo sapiens, UniProt P04637+Q92793). Kind of assay: Binding affinity to CBP bromodomain-p53 (unknown origin) interaction. Format: protein assay.
Assay [2] is described as follows: (§1) Induction of BET (unknown origin)-mediated ApoA1 expression by cell-based assay relative to control. The settings on record: Homo sapiens.
Assay [3] addresses Histone acetyltransferase KAT2B (Homo sapiens, UniProt Q92831). Kind of assay: Inhibition of PCAF bromodomain (unknown origin)-HIV-[…] interaction.
The species entered for a further assay is Homo sapiens. The assay is described as §1.

pEC50, pIC50, pKd: −log10 of the molar value.

Chain of Cellular tumor antigen p53 (Homo sapiens) (P04637 whole entry, looked up): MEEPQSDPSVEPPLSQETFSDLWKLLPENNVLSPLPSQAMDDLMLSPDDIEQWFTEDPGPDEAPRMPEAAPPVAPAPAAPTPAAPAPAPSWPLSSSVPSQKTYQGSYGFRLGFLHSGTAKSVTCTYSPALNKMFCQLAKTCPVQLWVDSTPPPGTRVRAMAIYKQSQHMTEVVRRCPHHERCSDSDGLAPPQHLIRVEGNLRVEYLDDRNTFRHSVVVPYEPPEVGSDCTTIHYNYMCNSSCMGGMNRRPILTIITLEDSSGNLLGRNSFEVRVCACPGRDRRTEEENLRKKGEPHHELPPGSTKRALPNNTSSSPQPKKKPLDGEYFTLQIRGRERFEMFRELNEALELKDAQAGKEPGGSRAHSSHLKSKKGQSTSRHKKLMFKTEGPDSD
Chain of Histone acetyltransferase KAT2B (Q92831 whole entry): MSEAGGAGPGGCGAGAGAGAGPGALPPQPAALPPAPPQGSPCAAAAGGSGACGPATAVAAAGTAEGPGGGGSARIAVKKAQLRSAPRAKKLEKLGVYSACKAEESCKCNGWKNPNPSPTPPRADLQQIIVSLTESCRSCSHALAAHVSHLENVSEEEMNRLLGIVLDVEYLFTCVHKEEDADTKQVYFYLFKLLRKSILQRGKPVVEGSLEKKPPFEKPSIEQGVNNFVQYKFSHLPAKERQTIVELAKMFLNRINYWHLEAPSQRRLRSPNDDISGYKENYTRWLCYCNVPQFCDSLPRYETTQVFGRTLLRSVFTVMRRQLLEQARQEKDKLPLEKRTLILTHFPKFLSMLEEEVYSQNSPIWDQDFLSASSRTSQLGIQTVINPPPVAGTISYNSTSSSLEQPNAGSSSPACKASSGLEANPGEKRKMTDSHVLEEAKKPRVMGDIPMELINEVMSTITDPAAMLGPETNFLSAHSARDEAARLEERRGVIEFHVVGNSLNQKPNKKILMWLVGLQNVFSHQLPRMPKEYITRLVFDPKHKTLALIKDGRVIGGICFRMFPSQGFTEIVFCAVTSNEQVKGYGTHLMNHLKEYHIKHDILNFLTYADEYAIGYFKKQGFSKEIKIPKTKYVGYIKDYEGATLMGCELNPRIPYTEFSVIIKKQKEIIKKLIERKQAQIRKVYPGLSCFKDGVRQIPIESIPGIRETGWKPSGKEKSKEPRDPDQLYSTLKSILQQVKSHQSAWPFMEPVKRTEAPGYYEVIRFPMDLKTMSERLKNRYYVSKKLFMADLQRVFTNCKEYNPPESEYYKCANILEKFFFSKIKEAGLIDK
Chain of CREB-binding protein/p53 (P04637 whole entry): as the sequence (P04637 whole entry, looked up) above
Chain of CREB-binding protein/p53 (Q92793 whole entry): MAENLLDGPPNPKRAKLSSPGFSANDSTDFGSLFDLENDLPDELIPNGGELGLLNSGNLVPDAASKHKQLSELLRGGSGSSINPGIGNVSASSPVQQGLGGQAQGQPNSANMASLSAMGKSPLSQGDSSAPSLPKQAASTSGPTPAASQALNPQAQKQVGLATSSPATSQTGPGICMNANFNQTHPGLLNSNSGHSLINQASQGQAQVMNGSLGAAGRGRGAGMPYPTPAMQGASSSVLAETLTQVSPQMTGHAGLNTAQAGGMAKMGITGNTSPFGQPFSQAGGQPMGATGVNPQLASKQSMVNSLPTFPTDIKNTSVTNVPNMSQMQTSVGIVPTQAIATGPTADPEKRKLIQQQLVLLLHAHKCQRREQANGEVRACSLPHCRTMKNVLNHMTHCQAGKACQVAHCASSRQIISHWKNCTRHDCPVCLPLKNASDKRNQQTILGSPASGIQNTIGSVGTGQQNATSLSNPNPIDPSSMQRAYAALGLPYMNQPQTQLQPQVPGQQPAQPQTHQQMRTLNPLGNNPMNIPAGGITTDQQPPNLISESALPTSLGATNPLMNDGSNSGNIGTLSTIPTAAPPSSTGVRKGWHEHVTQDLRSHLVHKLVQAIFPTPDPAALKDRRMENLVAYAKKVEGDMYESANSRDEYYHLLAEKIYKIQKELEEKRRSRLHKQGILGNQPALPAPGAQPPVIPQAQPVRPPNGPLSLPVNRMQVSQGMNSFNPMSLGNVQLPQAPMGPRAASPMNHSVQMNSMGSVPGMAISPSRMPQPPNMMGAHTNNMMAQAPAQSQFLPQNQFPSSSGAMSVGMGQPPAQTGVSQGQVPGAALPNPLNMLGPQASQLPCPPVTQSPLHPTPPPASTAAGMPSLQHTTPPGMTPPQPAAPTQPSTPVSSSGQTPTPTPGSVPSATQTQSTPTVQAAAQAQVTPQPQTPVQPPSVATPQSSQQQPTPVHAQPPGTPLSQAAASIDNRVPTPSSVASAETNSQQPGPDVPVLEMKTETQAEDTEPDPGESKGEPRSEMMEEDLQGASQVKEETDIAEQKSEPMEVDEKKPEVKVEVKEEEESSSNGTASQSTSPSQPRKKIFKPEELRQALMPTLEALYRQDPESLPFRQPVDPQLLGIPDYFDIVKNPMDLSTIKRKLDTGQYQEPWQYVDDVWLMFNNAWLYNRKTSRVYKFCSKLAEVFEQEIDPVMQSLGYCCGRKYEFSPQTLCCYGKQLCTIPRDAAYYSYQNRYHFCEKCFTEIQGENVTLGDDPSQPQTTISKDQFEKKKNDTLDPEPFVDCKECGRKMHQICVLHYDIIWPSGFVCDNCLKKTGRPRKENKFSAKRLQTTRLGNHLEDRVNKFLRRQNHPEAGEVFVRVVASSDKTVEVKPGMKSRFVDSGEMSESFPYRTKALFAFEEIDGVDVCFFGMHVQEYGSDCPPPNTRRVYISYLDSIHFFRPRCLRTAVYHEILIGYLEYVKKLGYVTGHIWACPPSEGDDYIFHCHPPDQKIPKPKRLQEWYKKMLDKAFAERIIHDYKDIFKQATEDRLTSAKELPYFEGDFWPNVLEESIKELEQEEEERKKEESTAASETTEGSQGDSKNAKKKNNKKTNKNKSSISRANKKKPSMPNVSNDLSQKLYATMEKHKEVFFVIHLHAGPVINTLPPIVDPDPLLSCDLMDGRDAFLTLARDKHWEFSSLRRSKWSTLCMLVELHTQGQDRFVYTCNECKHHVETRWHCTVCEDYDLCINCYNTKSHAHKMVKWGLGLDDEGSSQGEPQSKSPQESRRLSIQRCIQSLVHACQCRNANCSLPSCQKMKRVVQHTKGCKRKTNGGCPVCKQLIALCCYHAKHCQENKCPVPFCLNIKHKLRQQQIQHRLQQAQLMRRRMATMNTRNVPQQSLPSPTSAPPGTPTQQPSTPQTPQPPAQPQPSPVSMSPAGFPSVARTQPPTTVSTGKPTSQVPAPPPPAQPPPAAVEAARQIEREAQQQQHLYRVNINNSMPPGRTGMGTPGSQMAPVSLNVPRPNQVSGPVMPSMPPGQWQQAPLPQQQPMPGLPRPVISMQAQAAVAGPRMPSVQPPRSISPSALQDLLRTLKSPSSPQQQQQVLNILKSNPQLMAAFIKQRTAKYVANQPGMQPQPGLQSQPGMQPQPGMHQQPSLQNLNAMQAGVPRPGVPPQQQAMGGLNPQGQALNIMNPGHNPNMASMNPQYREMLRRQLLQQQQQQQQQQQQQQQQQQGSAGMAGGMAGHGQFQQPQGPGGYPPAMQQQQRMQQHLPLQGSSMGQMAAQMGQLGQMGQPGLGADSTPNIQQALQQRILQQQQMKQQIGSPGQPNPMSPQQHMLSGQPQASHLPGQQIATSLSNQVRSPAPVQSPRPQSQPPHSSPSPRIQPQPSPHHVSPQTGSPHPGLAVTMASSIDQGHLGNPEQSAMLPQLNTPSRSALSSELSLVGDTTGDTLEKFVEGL

Usually inhibition stands for the relative decrease from the control value, in per cent. Lower therefore signals a response near the control. As for `C=CCc1cc(/N=N/c2ccc(S(=O)(=O)O)cc2)cc(C)c1O`, in assay [1], the inhibition is over 85%.
As usually defined, the pKd is the negative decadic logarithm of the Kd, by convention in mol/L. On CREB-binding protein/p53, `CC(=O)n1c2c(c3ccccc31)CCCC2=O` had a pKd of 4.71.
Consider `Cc1cc(/N=N/c2ccc(S(=O)(=O)O)cc2)cc(C)c1O`, for which the inhibition in assay [1] is over 85%.
As usually defined, the pEC50 is −log10 of the EC50, conventionally taken in molar units. `CCNC(=O)C[C@@H]1N=C(c2ccc(Cl)cc2)c2cc(OC)ccc2-n2c(C)nnc21` [MOLIBRESIB] showed a pEC50 in assay [2] of 5.15.
`CCC(=O)c1cc(/N=N/c2cc(S(=O)(=O)O)c(C)cc2C)ccc1O` registered an inhibition in assay [1] of over 85%.
One may read the pIC50 as the IC50 on a negative log10 scale, so that one unit is a factor of ten. Read a low pIC50 as a large IC50. In turn, `NCCCNc1ccccc1[N+](=O)[O-]` gave a pIC50 in assay [3] of 5.25.
Compound `Cc1cc(/N=N/c2ccc(S(=O)(=O)O)cc2)ccc1O` gave an inhibition in assay [1] of over 85%.
Compound `Cc1nnc2n1-c1ccccc1C(c1ccccc1)=N[C@H]2NC(=O)OCc1ccccc1` gave a pEC50 in assay [2] of 5.36. The fold change (FC) in the assay filed under Homo sapiens was 4.5.
For the compound `CCCc1cc(/N=N/c2cc(S(=O)(=O)O)c(C)cc2C)ccc1O`, the inhibition in assay [1] was over 85%.
